Common to all, as to format: cell-based, human
For assay [1], the system named is TNF-α-stimulated VSMC. Put plainly: U937 monocyte adhesion to TNF-α-stimulated VSMC (Maresin-1). To be noted: 1-100 nM, 30 min pretreatment; TNFα 10 ng/ml 4 hr. On the procedure: (§1) MaR-1. VSMCs and ECs were seeded on a 96 well plate (20000 cells/well for VSMCs and 50000 cells/well for ECs) and after 2 days, were treated with Maresin-1 (1-100 nM) for 30 min followed by TNF-α for 4 hr and then calcein AM-labeled U937 cells were added on top of the VSMCs. After 15-minute incubation at 37 C, unbound cells were washed off with cold PBS. Fluorescence measurements (ex 494 nm, em 517 nm) of bound monocytes were taken with a plate reader. For capturing images, the assay was performed in 8-well chamber slides (Nunc Labtek) and images were taken after cold PBS wash (three times) following U937 incubation.
(§2) FIGS. 15A-15D. Representative images of Calcein-AM labeled U937 monocytes adhered to human sv-VSMCs pretreated with vehicle (A, B) or 7S-Maresin-1 (C) or 7S-Maresin-1 and pertussis toxin (D) for 30 min, followed by TNFα at 10 ng/ml for 4 hr (B, C, D). (E) Quantitative analysis of U937 adhesion assay in human sv-VSMCs and (F) human sv-ECs (1 ng/ml TNFα used for EC cells). […] Bar graph represents net quantitative densitometry analysis. […] Expression of MCP-1 was measured by qRT-PCR, and normalized to unstimulated cells (n=3, results are mean±SEM, P<0.05 for Mar-1 (10 and 100 nM) vs TNF alone, unpaired t-test).

Assay [2] relates to TNF-α-stimulated EC. The assay is described as follows: U937 monocyte adhesion to TNF-α-stimulated EC (Maresin-1). To be noted: 1-100 nM, 30 min pretreatment; TNFα 1 ng/ml 4 hr. As to the method:
as §1, §2

For assay [3], the system named is IKKα/β subunit. The assay is described as follows: TNFα induced phosphorylation of IKKα/β in sv-VSMCs, western blot. To be noted: 100 nm, 30 min; TNFα 10 ng/ml 15 min. As to the method:
(§3) Mar-1. VSMCs and ECs were lysed in buffer (20 mM Tris-Hcl, 137 mM NaCl, 10% Glycerol, 1% NP-40) with protease and phosphatase inhibitors (Halt inhibitor capsules, Pierce, Inc) by sonication on ice. The lysates were instantly snap frozen in liquid nitrogen and thawed back later for western blotting. After centrifugation (15,000 g for 20 minutes), the whole cell extract (supernatant) was collected and was heated at 100° C. in Laemlli buffer for 6 minutes. Lysates were run on Mini-Protean TGX gels
(§4) (Biorad) and transferred on PVDF membranes which were probed with appropriate primary and secondary antibodies and visualized for quantitation using q-dot nanocrystals (Life Technologies, Inc).
Cells were pretreated with 100 nm of 7S/7R-Maresin-1 for 30 min, followed by TNFα (10 ng/ml for VSMC and 1 ng/ml for EC) for 15 min. Whole cell lysates were collected and probed for pan and phospho IKK (Cell Signaling Inc.).
FIG. 18. IKK-phospho and total IKK western blotting image is representative of three independent experiments. Bar graph represents net quantitative densitometry analysis. N=3. P≤0.05, One-way ANOVA with Dunnett's post hoc test. *: P≤0.05 compared to control, unpaired t-test. †: P≤0.05 compared to TNFα, unpaired t-test. Error bars: SEM.
For orientation: A western blot detects proteins with antibodies after separation by electrophoresis.

Assay [4] relates to NOX4. Put plainly: TNFα induced NADPH-oxidase 4 expression, western blot. To be noted: 30 min pretreatment, TNFα 10 ng/ml 4 hr; sv-VSMCs. As to the method:
as §3, §4
NADPH oxidases (NOX) are the dominant source of superoxide generation in blood vessels and have been strongly implicated in vascular injury. NOX4 is a dominant isoform bound in VSMC and blood vessels. Regulation of NOX4 expression and activity therefore is of interest. Human sv-VSMCs were pretreated with 7S-Maresin-1 or vehicle for 30 min, followed by TNFα at 10 ng/ml for 4 hr. Whole cell lysates were blotted for NOX4 (Abcam Inc.) and beta-actin (Sigma).
FIG. 14. NOX4 and beta-actin western blotting image is representative of three independent experiments. Bar graph represents net quantitative densitometry analysis. N=3. […]

Assay [5] deals with p65 subunit. Put plainly: Nuclear translocation of p65 subunit in sv-ECs (immunofluorescence). To be noted: 100 nm, 30 min; TNFα 1 ng/ml 2 hrs. As to the method: Immunofluorescence for p65 (RelA): 15000 VSMCs or 30000 ECs were seeded on a 8-well chamber slide. Cells received 30 min of Maresin-1 pretreatment, followed by TNF-α for 2 hr. Cells were fixed in 2% paraformaldehyde, followed by permeabilization with ice-cold acetone (10 min) and 1% Triton X-100 (20 min). Cells were incubated overnight in a humidified chamber with anti-p65 antibody (Santa Cruz Biotechnology Inc.) followed by Alexa-fluor 488 tagged secondary antibody (Life Technologies) and were visualized under a fluorescent microscope.
ECs were grown in chamber slides and treated with vehicle or 100 nm of 7S-Maresin-1 for 30 min, followed by TNFα (1 ng/ml) for 2 hrs. Cells were fixed and subsequently stained with anti-p65 (Santa Cruz Biotechnology) and secondary antibodies (Alexa-488).
FIGS. 17A-17D. Representative images of Ctrl (A), TNFα (B), 7S-Maresin-1+TNFα. (C). (D) Mean fluorescence of nucleus and cytoplasm were quantified from all groups and the net result of the ratio of nucleus over cytoplasmic mean fluorescence is depicted in the bar graph, as a measure of relative p65 nuclear translocation. (N>=3). P≤0.05, One-way ANOVA with Dunnett's post hoc test. *: P≤0.05 compared to control, unpaired t-test. †: P≤0.05 compared to TNFα, unpaired t-test. Error bars: SEM.

The subject of assay [6] is VCAM-1. Put plainly: VCAM-1 expression in TNFα treated VSMC, western blot. To be noted: 10 and 100 nM; TNFα 10 ng/ml 4 hr; P=0.20 compared to TNFα. As to the method:
as §3, §4, §2

With `CC/C=C\C/C=C\C[C@H](O)\C=C/C=C/C=C/[C@@H](O)C/C=C\CCC(=O)O` [7S-Maresin-1, 7S,14R-dihydroxydocosa-4Z,8E,10Z,12Z,16Z,19Z-hexaenoic acid], the “monocyte adhesion (U937) to TNF-α-stimulated VSMC” value in assay [1] is listed as “dose-dependent inhibition”. In assay [2], the “monocyte adhesion (U937) to TNF-α-stimulated EC” value is given as “dose-dependent inhibition”. For the same compound, the “TNFα induced phosphorylation of IKKα/β subunit in human sv-VSMCs” value in assay [3] was “Reduce”. Moreover, the “TNFα induced NADPH-oxidase 4 expression” value in assay [4] is “Attenuates”. In addition, in assay [5], the “nuclear translocation of p65 subunit in human sv-ECs” value is listed as “Inhibits”. Besides, in assay [6], the “VCAM-1 expression by Western blot” value is listed as “inhibition of VCAM-1 expression”.

The record behind these values is patent US10111847B2, “Compounds and methods for modulating vascular injury” (The Regents of the University of California, priority 2012, dated 2018).
